Experiments:
[1] = test system: Caki-1 cells; assay: Cell death by combination treatment of ADP-ribose and radiation (MTT); type: cell-based; conditions: Caki-1, 16 μM ADP-ribose in combination with 2 Gy radiation, 24 hours, P<0.001; 2 Gy alone about 94.7%
Method: 3×10^3 Caki-1 cells were cultured in a 96-well plate for 24 hours under conditions of 37° C. and 5% CO2, treated with 16 μM of ADP-ribose and 2 or 5 Gy dose of radiation individually or in combination, and cultured for 24 hours under conditions of 37° C. and 5% CO2 again. Then, 10 μl of 3-(4,5-dimethylthiazol-2-yl)-2,5-diphenyltetrazolium bromide reagent was added to each well and reacted for 1 hour. After the reaction was completed, the reagent was removed, 200 μl of dimethyl sulfoxide was added to each well, and the absorbance was measured to confirm cell viability.

[2] = test system: H1975 cells; assay: ADP-ribose quantitative analysis (ELISA) in cancer cells; type: cell-based; conditions: 4 μM ADP-ribose, 24 hours, P<0.001
Method: (§1) After culturing, the culture medium was removed, the cells were washed with phosphate-buffered saline, and then RIPA buffer was added and the cells were left on ice for 20 minutes. After scraping the cells, the cells were put in a centrifuge tube and centrifuged for 10 minutes at 10,000 g and 4° C. The supernatant was obtained, and 1% SDS was added, and then the reaction product was boiled at 100° C. for 5 minutes and cooled on ice. The supernatant was centrifuged again at 10,000 g and 4° C. for 10 minutes to obtain the final supernatant, and ADP-ribose was quantitatively analyzed and compared using an ELISA analysis kit (Cell Biolabs, Inc., San Diego, CA, USA).
(§2) The medium of the cultured cells was removed, and the supernatant prepared by treatment with RIPA buffer and 1% sodium dodecyl sulfate (SDS) was used for ELISA analysis to detect and analyze ADP-ribose.

[3] = test system: AsPC-1 cells; assay: as above; type: cell-based; conditions: 8 μM ADP-ribose, 24 hours, P<0.001
Method: as §1, §2

[4] = test system: Pancreatic cancer (AsPC-1) cells; conditions: AsPC-1 xenograft
Method: (§3) Brain (U-87MG), lung (H1975), pancreatic (AsPC-1), or liver (Hep G2) cells (1×10^7 cells) were inoculated into 5-week-old BALB/c nude mice on the back flank, respectively. Then, when tumors were grown to a volume of approximately 150 mm^3, the mice were divided into the control group (control), an anti-cancer drug alone treatment group, and a combination treatment group. […] The tumor size was measured every 6 days using a digital caliper, and the results of changes in tumor volume were compared by the group.
The tumor size was measured using a digital caliper, and the results of changes in tumor volume were compared by the group.

[5] = test system: MDA-MB-231 cells; assay: Transwell metastasis and invasion ability of cancer cells; type: cell-based; conditions: MDA-MB-231, 32 μM ADP-ribose
Method: (§4) Metastasis and invasion ability of cancer cells were analyzed by using a transwell having polycarbonate membrane filters with 8.0 μm pore size. The transwell was put into a 24-well plate. In each well, pancreatic cancer (Aspc-1) and breast cancer (MDA-MB-231) cells were seeded on the upper surface of the insert at a density of 3.5×10^5 cells per well, divided into the untreated group and ADP-ribose-treated groups, and cultured under conditions of 37° C. and 5% CO2 for 24 hours. After culturing, the transwell was carefully washed with sterile water and then placed in 100% methanol to fix the attached cells. After fixation, the cells were stained with hematoxylin and an eosin reagent to observe the cells, and the ratio of cells that permeated the upper surface of the insert and metastasized and invaded the lower surface, compared to the untreated group, was obtained.
(§5) Analysis was performed using a transwell having polycarbonate membrane filters with 8.0 μm pore size. […] After culturing, the transwell was carefully washed with sterile water and then placed in 100% methanol to fix the attached cells. After fixation, the cells were stained with hematoxylin and an eosin reagent to observe the cells.

[6] = test system: AsPC-1 cells; assay: as above; type: cell-based; conditions: AsPC-1, 16 μM ADP-ribose
Method: as §4, §5

[7] = test system: AsPC-1 cells; assay: Cell death by combination treatment of ADP-ribose and radiation (MTT); type: cell-based; conditions: AsPC-1, 2 μM ADP-ribose in combination with 2 Gy radiation, 24 hours, P<0.001; 2 Gy alone about 87.3%
Method: 3×10^3 Brain cancer (U-87MG), lung cancer (H1975), pancreatic cancer (Aspc-1), liver cancer (Hep G2), breast cancer (MDA-MB-231), colon cancer (HCT116), and kidney cancer (Caki-1) cells were cultured in a 96-well plate for 24 hours under conditions of 37° C. and 5% CO2, treated with ADP-ribose or 2 or 5 Gy radiation alone or in combination with ADP-ribose and 2 Gy radiation, and cultured for 24 hours under conditions of 37° C. and 5% CO2 again. Then, 10 μl of 3-(4,5-dimethylthiazol-2-yl)-2,5-diphenyltetrazolium bromide reagent was added to each well and reacted for 1 hour. After the reaction was completed, the reagent was removed, 200 μl of dimethyl sulfoxide was added to each well, and the absorbance was measured to compare the degree of cell death.
3×10^3 AsPC-1 cells were cultured in a 96-well plate for 24 hours under conditions of 37° C. and 5% CO2, treated with 2 μM of ADP-ribose and 2 or 5 Gy dose of radiation individually or in combination, and cultured for 24 hours under conditions of 37° C. and 5% CO2 again. Then, 10 μl of 3-(4,5-dimethylthiazol-2-yl)-2,5-diphenyltetrazolium bromide reagent was added to each well and reacted for 1 hour. After the reaction was completed, the reagent was removed, 200 μl of dimethyl sulfoxide was added to each well, and the absorbance was measured to confirm cell viability.

[8] = test system: Liver cancer (Hep G2) cells; assay: Xenograft model, combination with anti-cancer drug, tumor volume; type: in vivo, BALB/c nude mice
Method: as §3
Liver cancer (Hep G2) cells (1×10^7) were inoculated into 5-week-old BALB/c nude mice on the back flank, and the mice were divided into three groups: the control group (Control), single oral administration of 10 mg/kg of sorafenib, and combination administration of sorafenib+10 mg/kg of ADP-ribose. When the tumors were grown to a volume of approximately 150 mm^3, sorafenib was administered orally 5 times a week, and ADP-ribose at 10 mg/kg was injected subcutaneously 3 times a week. The tumor size was measured using a digital caliper, and the results of changes in tumor volume were compared by the group.

[9] = test system: Breast cancer (MDA-MB-231) cells; assay: Xenograft model, combination with radiation, tumor volume; type: in vivo, BALB/c nude mice; conditions: MDA-MB-231 xenograft
Method: Brain cancer (U-87MG), pancreatic cancer (AsPC-1), breast cancer (MDA-MB-231), or kidney cancer (Caki-1) cells (1×10^7 cells) were inoculated into 5-week-old BALB/c nude mice on the back flank, respectively. Then, when tumors were grown to a volume of approximately 150 mm^3, the mice were divided into three groups: the control group (Control), 2 Gy dose of radiation alone, and a combination administration of 2 Gy dose of radiation+10 mg/kg of ADP-ribose (subcutaneous administration, 3 times a week). The irradiation was performed with an X-Rad 320 irradiator (Precision X-ray, North Branford, CT, USA), wherein the mice were placed by maintaining an appropriate distance from the radiation source for irradiation with a predetermined radiation dose. A lead shield was used to protect the body parts or organs from exposure to radiation, other than the cancerous part of the mouse. The irradiation was performed with a total of 2 Gy of radiation fractionated into two doses of 1 Gy each (for 2 days) at a dose rate of 300 kVp and 150 cGy/min using an X-ray beam filter composed of 12.5 mA and 2.0 mm Al. The tumor size was measured every 6 days using a digital caliper, and the results of changes in tumor volume were compared by the group.
Breast cancer (MDA-MB-231) cells (1×10^7) were inoculated into 5-week-old BALB/c nude mice on the back flank, and the mice were divided into three groups: the control group (Control), 2 Gy dose of radiation alone, and combination administration of 2 Gy dose radiation+20 mg/kg of ADP-ribose. When the tumors were grown to a volume of approximately 150 mm^3, 2 Gy dose of radiation was irradiated twice at 1 Gy each, and 20 mg/kg of ADP-ribose was injected subcutaneously 3 times a week. The tumor size was measured using a digital caliper, and the results of changes in tumor volume were compared by the group.

[10] = test system: OVCAR-3 cells; assay: Cancer cell death verification (MTT cell viability); type: cell-based; conditions: OVCAR-3, 32 μM ADP-ribose, 24 hours
Method: 3×10^3 SNU-1 or OVCAR-3 cells were cultured in a 96-well plate for 24 hours under conditions of 37° C. and 5% CO2, treated with ADP-ribose at concentrations of 32 μM, respectively, and cultured again for 24 hours under conditions of 37° C. and 5% CO2. Then, 10 μl of 3-(4,5-dimethylthiazol-2-yl)-2,5-diphenyltetrazolium bromide reagent was added to each well and reacted for 1 hour. After the reaction was completed, the reagent was removed, 200 μl of dimethyl sulfoxide was added to each well, and the absorbance was measured to confirm cell viability.

[11] = ADP-ribose 10 mg/kg s.c. in combination with gemcitabine 50 mg/kg, P<0.001
[12] = ADP-ribose 10 mg/kg s.c. in combination with sorafenib 10 mg/kg, P<0.001
[13] = ADP-ribose 20 mg/kg s.c. + 2 Gy radiation, P<0.001

SMILES: Nc1ncnc2c1ncn2[C@@H]1O[C@H](COP(=O)(O)OP(=O)(O)OC[C@H]2O[C@@H](O)C(O)C2O)C(O)C1O (stereo partly drawn) [ADP-ribose, adenosine diphosphate ribose]
- survival rate of cancer cells [1]: about 22.7%
- amount of ADP-ribose in cells compared to the control group [2]: remarkably increased significantly
- amount of ADP-ribose in cells compared to the control group [3]: remarkably increased significantly
- reduction of tumor volume compared to the control group [4, 11]: about 80%
- reduction of tumor volume compared to the group treated with gemcitabine alone [4, 11]: about 76%
- final tumor volume ([4]; ADP-ribose 10 mg/kg subcutaneous 3 times a week in combination with gemcitabine 50 mg/kg, control about 2174.3): about 444.3 mm^3
- invasion and metastasis from upper to lower part of the transwell (photomicrograph) ([5]; 24 hours, FIG. 11A): significantly inhibited
- metastasis and invasion ability, quantitatively measured, compared to the control group ([5]; P<0.001, FIG. 11B): significantly reduced
- invasion and metastasis from upper to lower part of the transwell (photomicrograph) ([6]; 24 hours, FIG. 10A): significantly inhibited
- metastasis and invasion ability, quantitatively measured, compared to the control group ([6]; P<0.001, FIG. 10B): significantly reduced
- survival rate of cancer cells [7]: about 8%
- reduction of tumor volume compared to the control group [8, 12]: about 76%
- reduction of tumor volume compared to the group treated with sorafenib alone [8, 12]: about 70%
- final tumor volume ([8]; ADP-ribose 10 mg/kg subcutaneous 3 times a week in combination with sorafenib 10 mg/kg, control about 2322.4): about 546 mm^3
- reduction of tumor volume compared to the control group [9, 13]: about 72.6%
- reduction of tumor volume compared to the group treated with 2 Gy dose of radiation alone [9, 13]: about 56.1%
- final tumor volume ([9]; ADP-ribose 20 mg/kg subcutaneous 3 times a week + 2 Gy radiation, control about 2336.1, 2 Gy alone about 1459.6): about 640.4 mm^3
- cell death compared to the control group [10]: killed significantly

Source: patent publication US20230372382A1, “USE OF ADENOSINE DIPHOSPHATE RIBOSE FOR ADJUVANT THERAPY WITH RADIATION AND/OR ANTI-CANCER TREATMENT” (PearlsInMires Co., Ltd., priority 2021, published 2023)
